Values of other authors as cited in patent US20220082565A1, “THE FGF19-CHOLESTYRAMINE (F-CME) TEST AS A TWO-STAGE METHOD FOR ROUTINE CANCER SCREENING” (UNIVERSITY OF CENTRAL FLORIDA RESEARCH FOUNDATION, INC., priority 2020, published 2022).

Tested on: FGF19 transcripts
Conditions: physiological concentrations of bile acids, explants of ileal mucosa

| SMILES | stimulation of human FGF19 transcripts |
| --- | --- |
| C[C@H](CCC(=O)O)[C@H]1CC[C@H]2[C@@H]3[C@H](O)C[C@@H]4C[C@H](O)CC[C@]4(C)[C@H]3CC[C@]12C [chenodeoxycholic acid] | approximately 300 fold |
| CC(CCC(=O)NCC(=O)O)C1CCC2C3C(O)CC4CC(O)CCC4(C)C3CCC12C (centres unmarked) [glycochenodeoxycholic acid] | approximately 300 fold |
